# Experimental data from patent US10517863B2, “Trilobine and its natural analogs for use as a drug” (PIERRE FABRE MEDICAMENT, priority 2015, dated 2019).
# What was measured:
# [1] = system: panel of cancer cell lines; experiment: Anti-proliferative activity (ATPLite), whole panel; assay type: cell-based; conditions: Homo sapiens; range over the panel
# Procedure: (§1) To measure the anti-proliferative properties of tested molecules, 2×10^4 cells are seeded at day 0 in a 96 wells plate. The compounds to be tested, stored at −20° C. as 10^−2 M stock solution in 100% DMSO, are freshly diluted on day 1 in the cell medium, before adding a dose range of 3.2 nM to 10 μM to the cells. The cell viability is assessed using the ATPLite kit from Perkin (ATPlite 1 Step Luminescence Assay System, ref 3016739), following the provider instructions. The raw data are analyzed with GraphPad Prism software (v4.03) to generate IC50 values corresponding to the compound concentrations giving 50% reduction in cell viability. The values presented are the mean results of at least two independent experiments. The standard errors are indicated.
# KG-1 = experiment: Anti-proliferative activity (ATPLite); assay type: cell-based; conditions: Homo sapiens; KG-1, Leukaemia; +/− standard error; read-out: Antiproliferative activity EC50
# Procedure: as §1
# Karpass299 = experiment: Anti-proliferative activity (ATPLite); assay type: cell-based; conditions: Homo sapiens; Karpass299, Lymphoma; +/− standard error; read-out: Antiproliferative activity EC50
# Procedure: as §1
# HCT-116 = experiment: Anti-proliferative activity (ATPLite); assay type: cell-based; conditions: Homo sapiens; HCT-116, Colorectal; +/− standard error; read-out: Antiproliferative activity EC50
# Procedure: as §1
# [2] = target: T1, human C-terminal DNMT3A (a.a. 623-908) (Homo sapiens, UniProt Q9Y6K1); experiment: hDNMT3A restriction-based fluorescence assay; assay type: biochemical; conditions: read-out: hDNMT 3A inhibition, Inhibition (%)
# T1 construct: The human C-terminal DNMT3A (a.a. 623-908); made in house
# T1 sequence (Q9Y6K1 627-912): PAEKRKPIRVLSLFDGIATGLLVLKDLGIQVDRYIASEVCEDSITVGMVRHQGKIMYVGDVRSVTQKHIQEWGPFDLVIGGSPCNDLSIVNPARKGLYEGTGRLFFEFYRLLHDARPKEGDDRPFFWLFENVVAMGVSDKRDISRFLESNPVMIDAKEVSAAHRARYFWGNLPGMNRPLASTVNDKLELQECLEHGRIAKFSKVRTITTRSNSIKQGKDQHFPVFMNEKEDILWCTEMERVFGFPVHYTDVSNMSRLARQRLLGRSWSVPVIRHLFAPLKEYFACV
# From the text: hDNMT3A enzyme inhibition was adapted from the restriction-based fluorescence assay protocol as described in the literature (Ceccaldi et al. ChemBioChem 2011, 12, 1337-1345). Briefly, a 5′-labelled biotin oligonucleotide is hybridized to its complementary strand labelled with 6-carboxyfluorescein at the 3′-end into a 384 well microplate (black Optiplates; Perkin Elmer) pre-coated with avidin. The duplex contains a unique CpG site overlapping with a restriction site of a methylation sensitive restriction enzyme. The human C-terminal DNMT3A (a.a. 623-908), produced as described in the literature (Gros et al. Nucl. Acids Res. 2013, 41(19):e185), was added in each well (200 ng/well) and mixed with the chemical compounds at desired concentrations and freshly prepared AdoMet (20 μM final concentration) to start the reaction in a total volume of 50 μL. After 1 hour incubation at 37° C. each well were washed three times with PBS, Tween-20 0.05%, NaCl (500 mM) and three more times with PBST. Specific fluorescent signals were detected with the methylation-sensitive restriction enzyme HpyCH4IV (NEB) as described and measured on a Perkin Elmer Envision detector. The percentage of inhibition is reported. The formula used to calculate the percentage of inhibition is [(X−Y)/X]×100, where X is the signal determined in the absence of the inhibitor and Y is the signal obtained in the presence of the inhibitor. The concentration at which 50% of efficacy of inhibition is observed (EC50) was determined by analysis of a concentration range of the tested compound in triplicates. The non-linear regression fittings with sigmoidal dose-response (variable slope) were performed with GraphPad Prism 4.03 (GraphPad Software).
# [3] = system: P16 expression in colon cancer cells HCT116; experiment: P16 reexpression by RT-qPCR; assay type: cell-based, human; conditions: at 100 nM, at 3 days
structure (smiles),measurement,setting,value
"COc1ccc2cc1Oc1ccc(cc1)C[C@@H]1NCCc3cc(OC)c4c(c31)Oc1cc3c(cc1O4)CCN(C)[C@H]3C2 [Compound 1, Trilobine]",IC50,[1],0.9 to 6.8 µM
same,EC50,KG-1,2.2 µM
same,EC50,Karpass299,1.3 µM
same,EC50,HCT-116,1.2 µM
same,inhibition at 10 µM,[2]; 10 μM,78%
same,inhibition at 32 µM,[2]; 32 μM,94%
same,Rexpression (RT qPCR) P16/HCT116 expression fold to non-treated cells,[3],5.0 ± 2.14 fold
